Reference: patent US20230097866A1, “BACTERIAL TOPOISOMERASE INHIBITORS DERIVED FROM ISOMANNIDE” (Ohio State Innovation Foundation, priority 2020, published 2023)
Converted amounts (≈) assume the structure as drawn. Read-outs that look alike come from different tables or passages of the source.

Columns and labels:
S. aureus ATCC 29213 = assay: MIC, CLSI broth microdilution, S. aureus ATCC 29213; assay type: cell-based; settings: Staphylococcus aureus, ATCC29213
[1] = system: Streptococcus pneumoniae LSI-4246; assay: MIC panel (Laboratory Specialists, Inc.), S. pneumoniae LSI-4246; assay type: cell-based; settings: LSI4246, Cmpd. 6, penicillin-resistant strain
[2] = system: Enterococcus faecalis ATCC 29212; assay: MIC panel (Laboratory Specialists, Inc.), E. faecalis; assay type: cell-based; settings: ATCC29212, Cmpd. 6, CLSI broth microdilution
[3] = system: Fluoroquinolone-resistant S. aureus (11 strains); assay: MIC90, panel of fluoroquinolone-resistant MRSA isolates; assay type: cell-based, Staphylococcus aureus
S. aureus DNA gyrase = S. aureus DNA gyrase (Staphylococcus aureus, UniProt P20831); assay: Inhibition of DNA gyrase, biochemical assay (Inspiralis); settings: S. aureus DNA gyrase; Inspiralis, Ltd.; read-out: Gyrase IC50
Sequence of S. aureus DNA gyrase (P0A0K8 whole entry): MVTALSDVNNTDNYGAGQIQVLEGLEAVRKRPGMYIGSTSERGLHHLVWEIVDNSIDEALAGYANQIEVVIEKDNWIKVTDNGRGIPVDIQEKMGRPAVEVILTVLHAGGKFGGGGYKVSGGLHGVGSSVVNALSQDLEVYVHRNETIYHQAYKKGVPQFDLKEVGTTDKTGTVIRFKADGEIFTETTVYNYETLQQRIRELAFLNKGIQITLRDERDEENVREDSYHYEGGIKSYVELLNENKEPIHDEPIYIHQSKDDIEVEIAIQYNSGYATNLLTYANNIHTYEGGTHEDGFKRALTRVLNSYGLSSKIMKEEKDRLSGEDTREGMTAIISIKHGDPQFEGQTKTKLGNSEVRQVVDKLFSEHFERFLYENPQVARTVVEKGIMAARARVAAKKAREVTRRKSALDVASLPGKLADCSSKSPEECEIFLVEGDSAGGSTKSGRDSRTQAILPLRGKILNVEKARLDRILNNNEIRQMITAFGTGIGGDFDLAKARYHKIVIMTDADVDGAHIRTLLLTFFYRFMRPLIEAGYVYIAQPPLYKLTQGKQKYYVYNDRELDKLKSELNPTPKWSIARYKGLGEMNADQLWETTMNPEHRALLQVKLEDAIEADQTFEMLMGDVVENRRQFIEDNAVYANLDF
Sequence of S. aureus DNA gyrase (P20831 whole entry): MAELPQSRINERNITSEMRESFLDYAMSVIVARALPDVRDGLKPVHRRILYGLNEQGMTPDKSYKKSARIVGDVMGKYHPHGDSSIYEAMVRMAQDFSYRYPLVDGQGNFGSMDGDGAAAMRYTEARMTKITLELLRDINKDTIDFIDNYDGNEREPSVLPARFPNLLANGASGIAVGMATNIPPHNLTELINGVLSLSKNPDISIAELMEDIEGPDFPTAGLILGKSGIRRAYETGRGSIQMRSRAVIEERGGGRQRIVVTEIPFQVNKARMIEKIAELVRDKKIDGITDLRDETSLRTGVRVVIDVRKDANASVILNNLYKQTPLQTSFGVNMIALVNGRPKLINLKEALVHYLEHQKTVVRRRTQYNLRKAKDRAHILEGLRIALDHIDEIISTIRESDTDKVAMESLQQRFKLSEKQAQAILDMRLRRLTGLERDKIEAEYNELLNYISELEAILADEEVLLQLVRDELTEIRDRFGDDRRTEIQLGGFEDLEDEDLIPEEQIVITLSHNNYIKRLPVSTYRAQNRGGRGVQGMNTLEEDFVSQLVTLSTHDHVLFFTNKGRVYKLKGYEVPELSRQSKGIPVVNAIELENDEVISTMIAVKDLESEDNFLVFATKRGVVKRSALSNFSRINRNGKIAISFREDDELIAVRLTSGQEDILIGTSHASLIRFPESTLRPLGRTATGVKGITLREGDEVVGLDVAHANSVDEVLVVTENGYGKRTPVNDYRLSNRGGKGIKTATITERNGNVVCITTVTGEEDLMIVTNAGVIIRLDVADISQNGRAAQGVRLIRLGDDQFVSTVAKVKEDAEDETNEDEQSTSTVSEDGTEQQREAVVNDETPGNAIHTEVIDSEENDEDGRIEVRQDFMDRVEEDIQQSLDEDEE

[4] = biological target: T1, Nav1.5 Late Current Human Ion Channel (Homo sapiens, UniProt Q14524); assay: Nav1.5 late current agonist QPatch CiPA assay; assay type: cell-based; settings: normalized to ATXII response
T1 construct: expressed in transfected cells
T1 sequence (Q14524 whole entry): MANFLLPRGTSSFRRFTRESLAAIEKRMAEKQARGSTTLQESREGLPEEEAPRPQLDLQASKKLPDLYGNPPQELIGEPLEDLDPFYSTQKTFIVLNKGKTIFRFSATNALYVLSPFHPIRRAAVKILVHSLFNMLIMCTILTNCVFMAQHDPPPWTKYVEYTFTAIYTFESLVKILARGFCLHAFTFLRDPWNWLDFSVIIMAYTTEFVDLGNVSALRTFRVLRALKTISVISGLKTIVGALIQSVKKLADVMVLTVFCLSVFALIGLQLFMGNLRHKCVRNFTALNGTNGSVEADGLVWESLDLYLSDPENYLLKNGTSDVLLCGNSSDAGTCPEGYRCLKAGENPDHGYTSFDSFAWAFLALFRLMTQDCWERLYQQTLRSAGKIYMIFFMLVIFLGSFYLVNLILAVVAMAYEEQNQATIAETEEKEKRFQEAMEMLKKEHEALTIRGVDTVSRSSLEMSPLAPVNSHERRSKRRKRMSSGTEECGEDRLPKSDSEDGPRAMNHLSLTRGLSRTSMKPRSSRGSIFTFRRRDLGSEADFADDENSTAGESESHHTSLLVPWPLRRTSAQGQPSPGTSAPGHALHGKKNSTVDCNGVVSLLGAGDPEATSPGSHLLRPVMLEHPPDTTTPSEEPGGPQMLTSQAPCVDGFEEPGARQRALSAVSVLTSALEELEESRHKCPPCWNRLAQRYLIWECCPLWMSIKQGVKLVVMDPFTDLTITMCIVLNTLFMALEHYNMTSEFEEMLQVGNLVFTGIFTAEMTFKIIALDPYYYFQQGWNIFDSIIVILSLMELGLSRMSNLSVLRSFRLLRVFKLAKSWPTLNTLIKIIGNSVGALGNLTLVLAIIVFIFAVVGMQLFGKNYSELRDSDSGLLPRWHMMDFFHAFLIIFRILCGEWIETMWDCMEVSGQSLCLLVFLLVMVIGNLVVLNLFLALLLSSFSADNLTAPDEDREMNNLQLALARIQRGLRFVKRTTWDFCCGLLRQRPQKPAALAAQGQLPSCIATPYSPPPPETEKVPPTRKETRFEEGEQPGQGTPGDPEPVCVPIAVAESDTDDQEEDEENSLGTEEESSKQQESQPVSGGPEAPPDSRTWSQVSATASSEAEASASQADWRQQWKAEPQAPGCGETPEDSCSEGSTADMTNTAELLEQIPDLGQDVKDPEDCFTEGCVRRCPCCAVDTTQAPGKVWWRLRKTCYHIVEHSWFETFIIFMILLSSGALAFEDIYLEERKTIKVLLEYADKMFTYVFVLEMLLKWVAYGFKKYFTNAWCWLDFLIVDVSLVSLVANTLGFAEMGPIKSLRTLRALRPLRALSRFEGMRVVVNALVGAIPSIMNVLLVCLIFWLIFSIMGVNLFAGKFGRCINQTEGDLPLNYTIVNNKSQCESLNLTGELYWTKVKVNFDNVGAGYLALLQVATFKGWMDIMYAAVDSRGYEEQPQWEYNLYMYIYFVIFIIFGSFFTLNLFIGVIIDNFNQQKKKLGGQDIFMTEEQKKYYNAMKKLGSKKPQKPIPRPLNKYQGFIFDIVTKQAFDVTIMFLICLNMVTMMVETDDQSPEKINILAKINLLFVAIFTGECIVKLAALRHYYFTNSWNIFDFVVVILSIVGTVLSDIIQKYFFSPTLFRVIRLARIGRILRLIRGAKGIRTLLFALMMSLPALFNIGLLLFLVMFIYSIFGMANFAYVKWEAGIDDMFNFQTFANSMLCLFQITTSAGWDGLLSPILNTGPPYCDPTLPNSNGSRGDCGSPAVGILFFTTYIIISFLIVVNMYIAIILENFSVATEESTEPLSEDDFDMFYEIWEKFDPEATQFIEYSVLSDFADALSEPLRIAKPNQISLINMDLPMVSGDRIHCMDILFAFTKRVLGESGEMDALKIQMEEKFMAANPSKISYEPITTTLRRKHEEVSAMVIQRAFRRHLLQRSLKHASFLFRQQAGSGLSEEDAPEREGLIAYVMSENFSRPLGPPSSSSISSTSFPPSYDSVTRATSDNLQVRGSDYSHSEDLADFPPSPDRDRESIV
Source text: Early drug discovery programs commonly assess hERG inhibition as the only indicator of potential cardiovascular safety concerns. Researchers have recently recommended a more rigorous evaluation of multiple cardiac ion channels to provide a more comprehensive cardiovascular risk assessment (Fermini, B., et al., A New Perspective in the Field of Cardiac Safety Testing through the Comprehensive In Vitro Proarrhythmia Assay Paradigm. J. Biomolec. Screening 2016, 21, 1-11). Given the promising initial results for 6, further evaluation was undertaken (in duplicate) in a Comprehensive in vitro Proarrhythmia Assay (CiPA) eight assay panel run on the QPatch HT (Sophion, Denmark) automated patch clamp system at three concentrations (3, 30, and 100 μM). All data were filtered for seal quality, seal drop, and current amplitude. A stock solution of the test compound at 30 mM concentration was prepared in DMSO.
The parameters measured were the degree of activation of inward current (charge) evoked on stepping to −15 mV from the test pulse. The peak and ramp current (charge) amplitude was calculated before and after compound addition and the amount of current (charge) was assessed by dividing the Test compound current (charge) by the Control current (charge). Control is the mean hNav1.5 late current (charge) collected 15 seconds at the end of the control; Test Compound is the mean hNav1.5 current (charge) collected in the presence of test compound at each concentration. Changes in charge were normalized to the maximum response of the EC50 of ATXII (positive control).

[5] = biological target: Norepinephrine transporter (Homo sapiens, UniProt P23975); assay: Off-target safety panel, norepinephrine transporter; assay type: binding; settings: duplicate, read-out: % Inhibition at 100 μM conc., Norepinephrine transporter
Procedure: (§1) Potential off-target pharmacology for compound 6 was also evaluated by screening in duplicate against a panel (Bowes, J., et al., Reducing Safety-Related Drug Attrition: The Use of in vitro Pharmacological Profiling. Nat. Rev. Drug Disc. 2012, 11, 909-922) of 44 receptors, enzymes, etc. Of the 44 potential targets, only five were inhibited by >50% at a concentration of 100 μM (Table 7).

Dopamine transporter = Dopamine transporter (Homo sapiens, UniProt Q01959); assay: Off-target safety panel, dopamine transporter; assay type: binding; settings: duplicate, read-out: % Inhibition at 100 μM conc., Dopamine transporter
Sequence of Dopamine transporter (Q01959 whole entry): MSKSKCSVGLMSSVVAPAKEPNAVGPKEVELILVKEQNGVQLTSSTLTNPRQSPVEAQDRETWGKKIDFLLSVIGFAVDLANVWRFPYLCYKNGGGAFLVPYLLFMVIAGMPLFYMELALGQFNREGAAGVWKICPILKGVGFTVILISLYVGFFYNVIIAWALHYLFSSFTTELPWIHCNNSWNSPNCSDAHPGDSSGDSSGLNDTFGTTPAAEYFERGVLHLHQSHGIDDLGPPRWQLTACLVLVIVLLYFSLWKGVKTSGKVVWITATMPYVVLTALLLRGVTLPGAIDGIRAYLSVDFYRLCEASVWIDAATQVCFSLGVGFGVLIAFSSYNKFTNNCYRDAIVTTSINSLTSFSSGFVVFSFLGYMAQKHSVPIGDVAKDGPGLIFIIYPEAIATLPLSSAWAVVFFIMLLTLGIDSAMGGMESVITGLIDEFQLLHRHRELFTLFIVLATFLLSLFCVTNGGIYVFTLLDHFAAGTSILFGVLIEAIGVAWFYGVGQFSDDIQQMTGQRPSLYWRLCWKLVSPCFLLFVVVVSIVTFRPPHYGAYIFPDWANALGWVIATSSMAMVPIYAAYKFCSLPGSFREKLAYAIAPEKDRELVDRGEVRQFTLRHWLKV
Procedure: as §1

[6] = 100 μM
Procedure: as §1

HepaRG cells = assay: ATP viability cytotoxicity assay in HepaRG cells; assay type: cell-based; settings: 24 hours
Procedure: The cytotoxicity of compound 6 was measured using an ATP viability assay in HepaRG cells, with a five-point concentration-response curve (Table 8).
HepaRG cells were plated in a collagen coated 96-well plate overnight and treated the next day with test compounds and controls for 24 hours. Tamoxifen was used as a positive control compound for cytotoxicity (25 μM). After 24 hours, the plate was equilibrated to room temperature for 30 minutes and Cell Titer-Glo Reagent was added. Luminescence was measured using an EnSpire multimode plate reader. Data were reported as % cytotoxi city compared to vehicle treated control.
Cytotoxicity was determined by calculating the percentage of vehicle control: […]

Caco-2 cells = assay type: in vitro ADME; settings: human, Caco-2, 10 μM, pH 7.4
Procedure: Caco-2 cells were plated on Transwell inserts and permeability assays were performed at day 21-25 post-plating. A single concentration of test compound (10 μM final) was prepared in HSS-HEPES buffer (pH 7.4) with a final DMSO concentration of 0.1%. To determine apical to basolateral (A to B) transport, test compounds were applied to the apical compartment in the presence and absence of the P-gp inhibitor verapamil (100 μM final). Atenolol and caffeine were assayed as control compounds. Samples were collected at various time points and analyzed using LC-MS/MS methods to determine the apparent permeability coefficient (Papp), efflux ratio, and recovery of the test compound.
Transport in the opposite direction (B to A) was also determined.

CYP1A2 = biological target: T2, CYP1A2 (Homo sapiens, UniProt P05177); assay type: in vitro ADME; settings: 10 μM; human liver microsomes
T2 construct: incubated with human liver microsomes (mixed gender, pool of 50 donors, 0.1 mg/mL); from tissue; host or cells: human liver microsomes, pool of 50 donors
T2 sequence (P05177 whole entry): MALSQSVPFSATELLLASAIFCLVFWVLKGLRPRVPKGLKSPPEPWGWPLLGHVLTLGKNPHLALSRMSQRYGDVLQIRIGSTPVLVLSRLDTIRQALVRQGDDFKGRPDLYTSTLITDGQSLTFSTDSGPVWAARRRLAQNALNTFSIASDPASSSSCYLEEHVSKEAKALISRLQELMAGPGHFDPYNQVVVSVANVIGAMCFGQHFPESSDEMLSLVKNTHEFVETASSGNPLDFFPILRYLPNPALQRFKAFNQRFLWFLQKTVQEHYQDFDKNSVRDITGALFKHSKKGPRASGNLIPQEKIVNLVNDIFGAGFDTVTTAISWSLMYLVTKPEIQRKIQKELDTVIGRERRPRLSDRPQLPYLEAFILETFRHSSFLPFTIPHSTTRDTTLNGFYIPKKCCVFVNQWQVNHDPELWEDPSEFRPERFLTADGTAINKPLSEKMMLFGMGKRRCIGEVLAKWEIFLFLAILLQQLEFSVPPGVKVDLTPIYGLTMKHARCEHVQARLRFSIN
Procedure: (§2) CYP450 inhibition assays was conducted using individual enzyme substrates and inhibitors instead of a cocktail to avoid interferences. CYP450 isoforms tested included the following: CYP1A2, CYP2B6, CYP2C8, CYP2C9, CYP2C19, CYP2D6, and CYP3A4. Each test compound was screened at a final concentration of 10 μM. Each test compound was incubated with human liver microsomes (mixed gender, pool of 50 donors, 0.1 mg/mL), CYP450-selective probe substrates, and co-factors (NADPH, MgCl2) in phosphate buffer (pH 7.4) for 10-30 min in a 96-well plate at 37° C. The reactions were stopped by transferring the reaction mixture to acetonitrile/methanol. Samples were mixed and centrifuged, and the supernatants analyzed by LC-MS/MS to quantify percent inhibition relative to vehicle control.

CYP2B6 = biological target: T3, CYP2B6 (Homo sapiens, UniProt P20813); assay: CYP450 inhibition in human liver microsomes, CYP2B6; assay type: in vitro ADME; settings: 10 μM
T3 construct: incubated with human liver microsomes (mixed gender, pool of 50 donors, 0.1 mg/mL); from tissue; host or cells: human liver microsomes, pool of 50 donors
Procedure: as §2

CYP2D6 = biological target: T4, CYP2D6 (Homo sapiens, UniProt P10635); assay: CYP450 inhibition in human liver microsomes, CYP2D6; assay type: in vitro ADME; settings: 10 μM
T4 construct: incubated with human liver microsomes (mixed gender, pool of 50 donors, 0.1 mg/mL); from tissue; host or cells: human liver microsomes, pool of 50 donors
Procedure: as §2

COc1ccc2ncc(F)c(CC[C@@]3(O)CO[C@@H]4[C@@H](NCc5cc6c(cn5)OCCO6)CO[C@@H]43)c2n1 [Compound 6, (3R, 3aS,6S,6aR)-6-(((2,3-dihydro-[1,4]dioxino[2,36-c]pyridin-7-yl)methyl)amnino)-3-(2-(3-fluoro-6-methoxy-1,5-naphthyridin-4-yl)ethyl)hexahydrofuro[3,2-b]furan-3-ol]
MIC (S. aureus ATCC 29213; CLSI broth microdilution, triplicate, read-out: MIC ATCC 29213): 1 to 4 µg/mL
MIC (S. aureus ATCC 29213; same MIC expressed in μM, read-out: MIC for S. aureus ATCC 29213): 2 to 8 µM
MIC [1]: ≤ 0.12 µg/mL
MIC [2]: 2 µg/mL (≈ 4.01 µM)
MIC90 ([3]; Staphylococcus aureus, Cmpd. 6, MIC90): 2 µg/mL (≈ 4.01 µM)
MIC90 better than that of ciprofloxacin ([3]; panel of fluoroquinolone-resistant MRSA isolates): 16 fold
IC50 (S. aureus DNA gyrase): 530 nM
Navi1.5 Late (agonist - activation of late current) ([4]; 3 μM): 3.4%
Navi1.5 Late (agonist - activation of late current) ([4]; 30 μM): 7.7%
Navi1.5 Late (agonist - activation of late current) ([4]; 100 μM): 17.0%
inhibition at 100 µM [5]: 68%
inhibition at 100 µM (Dopamine transporter): 96%
number of the 44 potential targets inhibited by >50% [6]: five
% Cytotoxicity (HepaRG cells; 0.01 μM): 6%
% Cytotoxicity (HepaRG cells; 0.1 μM): 4%
% Cytotoxicity (HepaRG cells; 1 μM): 9%
% Cytotoxicity (HepaRG cells; 10 μM): 8%
Caco-2 permeability A→B (Caco-2 cells): 10.8 ×10⁻⁶ cm/s
Caco-2 permeability B→A (Caco-2 cells): 85.3 ×10⁻⁶ cm/s
CYP1A2 inhibition (CYP1A2): Less than 50%
CYP2B6 inhibition (CYP2B6): Less than 50%
CYP2D6 inhibition (CYP2D6): Less than 50%
